# Test results reported in patent US5698411A, “Method for determining activity of enzymes in metabolically active whole cells” (priority 1995, dated 1997).
# How the values were obtained:
# Format in all cases: cell-based, human
# [1] = test system: granulocytes; experiment: peptidase activity in leukemia and non-leukemia patients, granulocytes (Table 6C); design: unit not given here
# Text: (§1) Artificial intelligence was used to analyze data of cellular enzyme functions, and determine normal and disease states. Peptidases were used to distinguish leukemia from non-leukemia (output pattern). For input patterns lymphocyte and granulocyte cell types were used with aminopeptidases, cathepsins and dipeptidylpeptidase enzyme activities. In this Example, illustrated in Tables 6A-6C, three normals and three leukemia patients were used as known output patterns for the neural network to learn (in practice, the larger the learning set the more accurate unknown prediction will be). Unknowns were then presented to the learned algorithm as shown in the test case examples. Clinical diagnosis was confirmed by physicians. The trained neural network was able to correctly classify the leukemia from the non-leukemia.
# [2] = test system: lymphocytes; experiment: peptidase activity in leukemia and non-leukemia patients, lymphocytes (Table 6C); design: unit not given here
# Text: as §1
# [3] = test system: monocytes; experiment: aberrant enzyme activities in febrile children, monocytes (Table 7)
# [4] = test system: lymphocytes; experiment: aberrant enzyme activities in febrile children, lymphocytes (Table 7)
# [5] = test system: granulocytes; experiment: aberrant enzyme activities in febrile children, granulocytes (Table 7)
structure (smiles),measurement,setting,value
"NCC(=O)N1CCC[C@H]1C(=O)Nc1ccc2c(c1)Oc1cc(NC(=O)[C@@H]3CCCN3C(=O)CN)ccc1C21OC(=O)c2ccccc21 [GP, (H-Gly--Pro)2 Rho .2TFA]","enzyme activity, Grans",[1]; J4 11/21/91 acute leuk.,10.75
same,"enzyme activity, Grans",[1]; J4 12/2/91 A L,11.08
same,"enzyme activity, Grans",[1]; J4 12/3/91 acute leuk.,1.28
same,"enzyme activity, Grans",[1]; J5 11/27/91 A M L,8.95
same,"enzyme activity, Grans",[1]; J19 11/27/91 C L L,1.39
same,"enzyme activity, Grans",[1]; J22 12/2/91 A M L,13.98
same,"enzyme activity, Grans",[1]; J22 12/9/91 A M L,11.52
same,"enzyme activity, Grans",[1]; N191 normal,11.20
same,"enzyme activity, Grans",[1]; N192 normal,11.22
same,"enzyme activity, Grans",[1]; N193 normal,8.87
same,"enzyme activity, Grans",[1]; N194 normal,12.49
same,"enzyme activity, Grans",[1]; N195 normal,13.31
same,"enzyme activity, Grans",[1]; N197 normal,15.85
same,"enzyme activity, Grans",[1]; N199 normal,13.41
same,"enzyme activity, Grans",[1]; N200 normal,12.74
same,"enzyme activity, Grans",[1]; N201 normal,15.92
same,"enzyme activity, Grans",[1]; N202 normal,14.44
same,"enzyme activity, Grans",[1]; N206 normal,17.96
same,"enzyme activity, Grans",[1]; P68 tachycardia,16.08
same,"enzyme activity, Grans",[1]; P69 pancreatic CA,16.21
same,"enzyme activity, Grans",[1]; P70 cirrhosis/hemobilia,16.42
same,"enzyme activity, Grans",[1]; P71 ac. pyelonephritis,11.07
same,"enzyme activity, Lymphs",[2]; J4 11/21/91 acute leuk.,2.72
same,"enzyme activity, Lymphs",[2]; J4 12/2/91 A L,3.80
same,"enzyme activity, Lymphs",[2]; J4 12/3/91 acute leuk.,4.17
same,"enzyme activity, Lymphs",[2]; J5 11/27/91 A M L,3.40
same,"enzyme activity, Lymphs",[2]; J19 11/27/91 C L L,1.73
same,"enzyme activity, Lymphs",[2]; J22 12/2/91 A M L,1.73
same,"enzyme activity, Lymphs",[2]; J22 12/9/91 A M L,3.01
same,"enzyme activity, Lymphs",[2]; N191 normal,4.14
same,"enzyme activity, Lymphs",[2]; N192 normal,3.00
same,"enzyme activity, Lymphs",[2]; N193 normal,3.00
same,"enzyme activity, Lymphs",[2]; N194 normal,5.22
same,"enzyme activity, Lymphs",[2]; N195 normal,5.24
same,"enzyme activity, Lymphs",[2]; N197 normal,5.97
same,"enzyme activity, Lymphs",[2]; N199 normal,5.55
same,"enzyme activity, Lymphs",[2]; N200 normal,5.38
same,"enzyme activity, Lymphs",[2]; N201 normal,6.53
same,"enzyme activity, Lymphs",[2]; N202 normal,6.61
same,"enzyme activity, Lymphs",[2]; N206 normal,7.09
same,"enzyme activity, Lymphs",[2]; P68 tachycardia,5.92
same,"enzyme activity, Lymphs",[2]; P69 pancreatic CA,6.80
same,"enzyme activity, Lymphs",[2]; P70 cirrhosis/hemobilia,6.68
same,"enzyme activity, Lymphs",[2]; P71 ac. pyelonephritis,3.55
CC(C)C[C@H](N)C(=O)NCC(=O)Nc1ccc2c(c1)Oc1cc(NC(=O)CNC(=O)[C@@H](N)CC(C)C)ccc1C21OC(=O)c2ccccc21 [LG],"enzyme activity, Grans",[1]; J4 11/21/91 acute leuk.,0.85
same,"enzyme activity, Grans",[1]; J4 12/2/91 A L,0.79
same,"enzyme activity, Grans",[1]; N200 normal,3.40
same,"enzyme activity, Grans",[1]; N202 normal,2.70
same,"enzyme activity, Grans",[1]; P70 cirrhosis/hemobilia,2.20
same,"enzyme activity, Grans",[1]; P71 ac. pyelonephritis,4.00
same,"aberrant enzyme activity, MONOS",[3]; P92 Adenitis,.smallcircle.
same,"aberrant enzyme activity, MONOS",[3]; P96 Viral Syndrome,.smallcircle.
same,"aberrant enzyme activity, MONOS",[3]; P97 Pyelonephritis,.smallcircle.
same,"aberrant enzyme activity, MONOS",[3]; P101 Fever -- Unknown Origin,.smallcircle.
same,"aberrant enzyme activity, MONOS",[3]; P103 Viral Syndrome,.smallcircle.
same,"enzyme activity, Lymphs",[2]; J4 11/21/91 acute leuk.,0.16
same,"enzyme activity, Lymphs",[2]; J4 12/2/91 A L,0.18
same,"enzyme activity, Lymphs",[2]; J4 12/3/91 acute leuk.,0.19
same,"enzyme activity, Lymphs",[2]; J5 11/27/91 A M L,0.23
same,"enzyme activity, Lymphs",[2]; J19 11/27/91 C L L,0.02
same,"enzyme activity, Lymphs",[2]; J22 12/2/91 A M L,0.02
same,"enzyme activity, Lymphs",[2]; J22 12/9/91 A M L,0.61
same,"enzyme activity, Lymphs",[2]; N199 normal,0.85
same,"enzyme activity, Lymphs",[2]; P68 tachycardia,0.78
same,"enzyme activity, Lymphs",[2]; P69 pancreatic CA,2.00
same,"enzyme activity, Lymphs",[2]; P70 cirrhosis/hemobilia,0.79
same,"enzyme activity, Lymphs",[2]; P71 ac. pyelonephritis,0.68
same,"aberrant enzyme activity, LYMPHS",[4]; P92 Adenitis,.smallcircle.
same,"aberrant enzyme activity, LYMPHS",[4]; P97 Pyelonephritis,.smallcircle.
same,"aberrant enzyme activity, LYMPHS",[4]; P102 UTI,.smallcircle.
same,"aberrant enzyme activity, LYMPHS",[4]; P103 Viral Syndrome,.smallcircle.
same,"aberrant enzyme activity, GRANS",[5]; P92 Adenitis,.smallcircle.
same,"aberrant enzyme activity, GRANS",[5]; P96 Viral Syndrome,.smallcircle.
same,"aberrant enzyme activity, GRANS",[5]; P97 Pyelonephritis,.smallcircle.
same,"aberrant enzyme activity, GRANS",[5]; P101 Fever -- Unknown Origin,.smallcircle.
same,"aberrant enzyme activity, GRANS",[5]; P102 UTI,.smallcircle.
"NC(=O)CC[C@H](N)C(=O)N[C@@H](CO)C(=O)Nc1ccc2c(c1)Oc1cc(NC(=O)[C@H](CO)NC(=O)[C@@H](N)CCC(N)=O)ccc1C21OC(=O)c2ccccc21 [QS, (H-L-Gln--Ser)2 Rho 110 .2TFA]","enzyme activity, Grans",[1]; J4 11/21/91 acute leuk.,0.22
same,"enzyme activity, Grans",[1]; J4 12/2/91 A L,0.44
same,"enzyme activity, Grans",[1]; J4 12/3/91 acute leuk.,0.19
same,"enzyme activity, Grans",[1]; J22 12/2/91 A M L,0.10
same,"enzyme activity, Grans",[1]; J22 12/9/91 A M L,0.24
same,"enzyme activity, Grans",[1]; N191 normal,0.19
same,"enzyme activity, Grans",[1]; N192 normal,0.15
same,"enzyme activity, Grans",[1]; N193 normal,0.14
same,"enzyme activity, Grans",[1]; N194 normal,0.07
same,"enzyme activity, Grans",[1]; N195 normal,0.21
same,"enzyme activity, Grans",[1]; N197 normal,0.24
same,"enzyme activity, Grans",[1]; N199 normal,0.05
same,"enzyme activity, Grans",[1]; N200 normal,0.06
same,"enzyme activity, Grans",[1]; N201 normal,0.09
same,"enzyme activity, Grans",[1]; N202 normal,0.08
same,"enzyme activity, Grans",[1]; N206 normal,0.27
same,"enzyme activity, Grans",[1]; P68 tachycardia,0.33
same,"enzyme activity, Grans",[1]; P69 pancreatic CA,0.37
same,"enzyme activity, Grans",[1]; P70 cirrhosis/hemobilia,0.19
same,"enzyme activity, Grans",[1]; P71 ac. pyelonephritis,0.51
same,"aberrant enzyme activity, MONOS",[3]; P92 Adenitis,.smallcircle.
same,"aberrant enzyme activity, MONOS",[3]; P97 Pyelonephritis,.smallcircle.
same,"enzyme activity, Lymphs",[2]; J4 11/21/91 acute leuk.,0.05
same,"enzyme activity, Lymphs",[2]; J4 12/2/91 A L,0.01
same,"enzyme activity, Lymphs",[2]; J4 12/3/91 acute leuk.,0.06
same,"enzyme activity, Lymphs",[2]; J5 11/27/91 A M L,0.07
same,"enzyme activity, Lymphs",[2]; J19 11/27/91 C L L,0.06
same,"enzyme activity, Lymphs",[2]; J22 12/2/91 A M L,0.02
same,"enzyme activity, Lymphs",[2]; J22 12/9/91 A M L,0.02
same,"enzyme activity, Lymphs",[2]; N191 normal,0.02
same,"enzyme activity, Lymphs",[2]; N192 normal,0.03
same,"enzyme activity, Lymphs",[2]; N193 normal,0.03
same,"enzyme activity, Lymphs",[2]; N194 normal,0.02
same,"enzyme activity, Lymphs",[2]; N195 normal,0.04
same,"enzyme activity, Lymphs",[2]; N197 normal,0.06
same,"enzyme activity, Lymphs",[2]; N199 normal,0.02
same,"enzyme activity, Lymphs",[2]; N200 normal,0.01
same,"enzyme activity, Lymphs",[2]; N201 normal,0.02
same,"enzyme activity, Lymphs",[2]; N202 normal,0.01
same,"enzyme activity, Lymphs",[2]; N206 normal,0.04
same,"enzyme activity, Lymphs",[2]; P68 tachycardia,0.02
same,"enzyme activity, Lymphs",[2]; P69 pancreatic CA,0.31
same,"enzyme activity, Lymphs",[2]; P70 cirrhosis/hemobilia,0.04
same,"enzyme activity, Lymphs",[2]; P71 ac. pyelonephritis,0.05
same,"aberrant enzyme activity, LYMPHS",[4]; P92 Adenitis,.smallcircle.
same,"aberrant enzyme activity, LYMPHS",[4]; P97 Pyelonephritis,.smallcircle.
same,"aberrant enzyme activity, LYMPHS",[4]; P103 Viral Syndrome,.smallcircle.
same,"aberrant enzyme activity, GRANS",[5]; P97 Pyelonephritis,.smallcircle.
"C[C@@H](O)[C@H](N)C(=O)N1CCC[C@H]1C(=O)Nc1ccc2c(c1)Oc1cc(NC(=O)[C@@H]3CCCN3C(=O)[C@@H](N)[C@@H](C)O)ccc1C21OC(=O)c2ccccc21 [TP, (H-L-Thr--Pro)2 Rho 110 .2TFA]","enzyme activity, Grans",[1]; J4 11/21/91 acute leuk.,5.96
same,"enzyme activity, Grans",[1]; J4 12/2/91 A L,2.59
same,"enzyme activity, Grans",[1]; J4 12/3/91 acute leuk.,1.93
same,"enzyme activity, Grans",[1]; J5 11/27/91 A M L,2.72
same,"enzyme activity, Grans",[1]; J19 11/27/91 C L L,2.95
same,"enzyme activity, Grans",[1]; J22 12/2/91 A M L,2.33
same,"enzyme activity, Grans",[1]; J22 12/9/91 A M L,2.51
same,"enzyme activity, Grans",[1]; N191 normal,4.73
same,"enzyme activity, Grans",[1]; N192 normal,4.62
same,"enzyme activity, Grans",[1]; N193 normal,4.96
same,"enzyme activity, Grans",[1]; N194 normal,3.77
same,"enzyme activity, Grans",[1]; N195 normal,3.74
same,"enzyme activity, Grans",[1]; N197 normal,3.82
same,"enzyme activity, Grans",[1]; N199 normal,3.71
same,"enzyme activity, Grans",[1]; N200 normal,4.69
same,"enzyme activity, Grans",[1]; N201 normal,4.23
same,"enzyme activity, Grans",[1]; N202 normal,4.44
same,"enzyme activity, Grans",[1]; N206 normal,5.98
same,"enzyme activity, Grans",[1]; P68 tachycardia,5.63
same,"enzyme activity, Grans",[1]; P69 pancreatic CA,4.21
same,"enzyme activity, Grans",[1]; P70 cirrhosis/hemobilia,4.02
same,"enzyme activity, Grans",[1]; P71 ac. pyelonephritis,4.37
same,"enzyme activity, Lymphs",[2]; J4 11/21/91 acute leuk.,2.30
same,"enzyme activity, Lymphs",[2]; J4 12/2/91 A L,1.46
same,"enzyme activity, Lymphs",[2]; J4 12/3/91 acute leuk.,1.18
same,"enzyme activity, Lymphs",[2]; J5 11/27/91 A M L,1.32
same,"enzyme activity, Lymphs",[2]; J19 11/27/91 C L L,0.50
same,"enzyme activity, Lymphs",[2]; J22 12/2/91 A M L,0.99
same,"enzyme activity, Lymphs",[2]; J22 12/9/91 A M L,1.02
same,"enzyme activity, Lymphs",[2]; N191 normal,2.14
same,"enzyme activity, Lymphs",[2]; N192 normal,2.12
same,"enzyme activity, Lymphs",[2]; N193 normal,2.33
same,"enzyme activity, Lymphs",[2]; N194 normal,1.82
same,"enzyme activity, Lymphs",[2]; N195 normal,1.90
same,"enzyme activity, Lymphs",[2]; N197 normal,1.96
same,"enzyme activity, Lymphs",[2]; N199 normal,1.86
same,"enzyme activity, Lymphs",[2]; N200 normal,2.39
same,"enzyme activity, Lymphs",[2]; N201 normal,1.88
same,"enzyme activity, Lymphs",[2]; N202 normal,2.49
same,"enzyme activity, Lymphs",[2]; N206 normal,2.89
same,"enzyme activity, Lymphs",[2]; P68 tachycardia,1.90
same,"enzyme activity, Lymphs",[2]; P69 pancreatic CA,2.26
same,"enzyme activity, Lymphs",[2]; P70 cirrhosis/hemobilia,1.89
same,"enzyme activity, Lymphs",[2]; P71 ac. pyelonephritis,1.86
